According to patent US10363251B2, “(+)-morphinans as antagonists of toll-like receptor 9 and therapeutic uses thereof” (Mallinckrodt LLC, priority 2009, dated 2019):

Experiments:
TLR9 [1] = target: T1, TLR9 (Homo sapiens, UniProt Q9NR96); test: TLR9 screening of (+)-morphinan library, SEAP reporter in HEK293 cells expressing TLR9; assay type: cell-based; settings: activator ODN2006; for OD 650 nm (mean ± sd): control (no activator) 0.14, activator 1.42 OD; for inhibition at 0.1 µM: HEK293, read-out: % Inhibition (mean), 100 nM; for inhibition at 10 µM: HEK293, read-out: % Inhibition (mean), 10 μM
T1 construct: expressed in transfected cells; host or cells: HEK293
T1 sequence (Q9NR96 26-1032): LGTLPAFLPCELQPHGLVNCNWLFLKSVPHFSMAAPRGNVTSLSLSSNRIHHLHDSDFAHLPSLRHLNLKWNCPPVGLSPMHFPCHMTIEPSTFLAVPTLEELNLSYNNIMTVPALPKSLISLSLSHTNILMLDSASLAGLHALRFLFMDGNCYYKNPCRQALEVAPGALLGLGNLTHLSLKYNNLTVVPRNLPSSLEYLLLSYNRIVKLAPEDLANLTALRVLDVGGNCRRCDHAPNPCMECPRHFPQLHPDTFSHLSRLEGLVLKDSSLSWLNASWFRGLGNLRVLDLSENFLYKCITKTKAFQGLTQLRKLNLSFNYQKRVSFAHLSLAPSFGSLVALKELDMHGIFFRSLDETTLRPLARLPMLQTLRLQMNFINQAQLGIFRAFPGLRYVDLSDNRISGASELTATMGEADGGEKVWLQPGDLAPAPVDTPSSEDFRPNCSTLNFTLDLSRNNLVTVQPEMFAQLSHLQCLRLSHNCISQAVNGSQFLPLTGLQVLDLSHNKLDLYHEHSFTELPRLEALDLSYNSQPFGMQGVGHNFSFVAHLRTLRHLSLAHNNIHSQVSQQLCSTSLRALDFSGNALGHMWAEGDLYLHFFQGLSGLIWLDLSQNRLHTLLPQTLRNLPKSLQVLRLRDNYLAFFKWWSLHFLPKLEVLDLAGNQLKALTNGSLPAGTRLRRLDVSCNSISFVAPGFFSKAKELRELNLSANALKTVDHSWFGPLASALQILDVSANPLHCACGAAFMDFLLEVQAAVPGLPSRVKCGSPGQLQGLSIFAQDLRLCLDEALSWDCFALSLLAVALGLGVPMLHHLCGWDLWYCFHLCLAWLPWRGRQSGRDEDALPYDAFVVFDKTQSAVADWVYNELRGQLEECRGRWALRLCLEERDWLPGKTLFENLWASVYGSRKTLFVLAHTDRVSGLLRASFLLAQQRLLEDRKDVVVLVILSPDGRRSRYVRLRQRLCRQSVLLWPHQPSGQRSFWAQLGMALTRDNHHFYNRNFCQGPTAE
How it was run: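 HEK293 cells expressing TLR9 with an NF-κB-inducible SEAP reporter were preincubated with compound at 10 μM and 100 nM for 30 min at 37 °C, then stimulated with ODN2006. SEAP was read as OD 650 nm after 16-20 h, in triplicate.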

[2] = test system: Experimental Autoimmune Encephalomyelitis (EAE); settings: for EAE clinical scores: bid for 20 days, Cmpd II-98 5 mg/kg sc, others 20 mg/kg sc, Prednisolone 4.5 mg/kg ip, vs vehicle control
TLR2 = target: T2, TLR2 (Homo sapiens, UniProt O60603); test: TLR2 antagonist screening, NF-κB-inducible SEAP reporter in HEK293 cells; assay type: cell-based; settings: 10 μM; stimulated with HKLM at 10^8 cell/ml
T2 construct: expressed in transfected cells; host or cells: HEK293
T2 sequence (O60603 21-784, species assumed): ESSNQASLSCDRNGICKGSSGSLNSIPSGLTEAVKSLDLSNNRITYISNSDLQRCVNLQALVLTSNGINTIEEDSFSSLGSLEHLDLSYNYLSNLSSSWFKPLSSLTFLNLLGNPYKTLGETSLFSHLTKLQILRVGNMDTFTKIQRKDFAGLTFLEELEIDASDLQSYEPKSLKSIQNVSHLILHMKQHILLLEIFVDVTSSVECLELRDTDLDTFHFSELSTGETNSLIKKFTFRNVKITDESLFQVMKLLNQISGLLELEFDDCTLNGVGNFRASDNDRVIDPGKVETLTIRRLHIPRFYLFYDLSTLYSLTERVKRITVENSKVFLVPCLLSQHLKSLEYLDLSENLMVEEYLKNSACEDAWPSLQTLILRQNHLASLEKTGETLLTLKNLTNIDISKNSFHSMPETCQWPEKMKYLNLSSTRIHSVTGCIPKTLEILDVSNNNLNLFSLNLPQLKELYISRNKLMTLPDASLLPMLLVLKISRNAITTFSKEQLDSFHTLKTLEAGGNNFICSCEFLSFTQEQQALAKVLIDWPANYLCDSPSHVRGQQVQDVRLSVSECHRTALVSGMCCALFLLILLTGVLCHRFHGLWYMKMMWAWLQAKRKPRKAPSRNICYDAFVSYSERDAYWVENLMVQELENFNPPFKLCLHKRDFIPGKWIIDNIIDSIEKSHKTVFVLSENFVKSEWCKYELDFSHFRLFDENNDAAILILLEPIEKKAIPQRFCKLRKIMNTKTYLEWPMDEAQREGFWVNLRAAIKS
Experimental: (§1) Stimulation of TLRs 2, 3, 4, 5, 7, 8, and 9 was determined by assessing activation of the transcription factor NF-κB in HEK293 cells that were engineered to express the corresponding receptors. Assessment of TLR stimulation was based on the use of an NF-κB-inducible secreted alkaline phosphatase (SEAP) reporter system in which the SEAP reporter was under the control of a promoter inducible by NF-κB. Thus, the degree of activation of TLRs can be indirectly quantified spectrophotometrically by measuring the amount of the SEAP reporter that is produced.
(§2) The appropriate TLR-expressing cells were plated in Growth Medium in a 96-well plate (25,000-50,000 cells/well). The cells were stimulated with the appropriate positive control ligand or no ligand was added (negative control). The positive control ligands were: HKLM was used to stimulate TLR2; poly(I:C) was used to stimulate TLR3; LPS was used to stimulate TLR4; Flagellin was used to stimulate TLR5; CL097 was used to stimulate TLR7; CL075 was used to stimulate TLR8; CpG oligodeoxynucleotide (ODN) 2006 was used to stimulate TLR9. To test whether (+)-morphinans could block that activation of the TLR, the cells were pretreated with an antagonist for 30 minutes prior to addition of the positive control ligand. For this, 20 μL of the stock test compound solution (100 μM in H2O) was added to give a total volume of 200 μL. […] After a 16-20 hr incubation period at 37° C. in a CO2 incubator, 20 μL of the cell culture supernatant was added to 180 μL of QUANTI-Blue™ Media (InvivoGen, San Diego, Calif.), and the resulting solutions were incubated at 37° C. for an additional 1-3 hours according to the manufacturer's instructions. The OD's of the samples were then read at 650 nm on a Beckman Coulter AD 340C Absorbance Detector.

TLR3 = target: T3, TLR3 (Homo sapiens, UniProt O15455); test: TLR3 antagonist screening, NF-κB-inducible SEAP reporter in HEK293 cells; assay type: cell-based; settings: 10 μM; stimulated with poly(I:C) at 1 μg/ml
T3 construct: expressed in transfected cells; host or cells: HEK293
T3 sequence (O15455 24-904, species assumed): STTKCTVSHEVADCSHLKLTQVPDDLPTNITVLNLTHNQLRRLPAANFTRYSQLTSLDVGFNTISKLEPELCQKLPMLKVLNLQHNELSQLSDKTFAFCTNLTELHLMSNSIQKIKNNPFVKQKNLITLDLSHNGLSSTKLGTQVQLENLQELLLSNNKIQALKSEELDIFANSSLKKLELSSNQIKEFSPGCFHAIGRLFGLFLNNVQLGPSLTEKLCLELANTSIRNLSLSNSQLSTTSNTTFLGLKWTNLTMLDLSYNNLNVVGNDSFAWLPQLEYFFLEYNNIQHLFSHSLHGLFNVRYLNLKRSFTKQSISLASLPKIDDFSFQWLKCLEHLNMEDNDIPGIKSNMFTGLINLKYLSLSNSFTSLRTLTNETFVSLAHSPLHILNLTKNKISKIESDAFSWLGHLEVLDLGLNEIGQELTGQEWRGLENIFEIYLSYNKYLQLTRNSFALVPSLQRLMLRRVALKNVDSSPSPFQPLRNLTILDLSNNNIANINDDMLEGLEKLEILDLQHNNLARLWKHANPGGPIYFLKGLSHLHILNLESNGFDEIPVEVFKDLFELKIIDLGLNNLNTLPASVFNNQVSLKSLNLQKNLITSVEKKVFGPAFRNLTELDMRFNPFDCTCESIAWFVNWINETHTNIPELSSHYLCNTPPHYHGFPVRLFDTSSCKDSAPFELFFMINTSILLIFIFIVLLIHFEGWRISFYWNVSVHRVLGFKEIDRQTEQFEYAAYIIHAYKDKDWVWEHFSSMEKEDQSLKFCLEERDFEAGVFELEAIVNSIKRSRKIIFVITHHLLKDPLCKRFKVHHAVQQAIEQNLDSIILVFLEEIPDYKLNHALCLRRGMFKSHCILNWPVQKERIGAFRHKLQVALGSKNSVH
Experimental: as §1, §2

TLR4 = target: T4, TLR4 (Homo sapiens, UniProt O00206); test: TLR4 antagonist screening, NF-κB-inducible SEAP reporter in HEK293 cells; assay type: cell-based; settings: 10 μM; stimulated with LPS at 100 ng/ml
T4 construct: expressed in transfected cells; host or cells: HEK293
T4 sequence (O00206 24-839, species assumed): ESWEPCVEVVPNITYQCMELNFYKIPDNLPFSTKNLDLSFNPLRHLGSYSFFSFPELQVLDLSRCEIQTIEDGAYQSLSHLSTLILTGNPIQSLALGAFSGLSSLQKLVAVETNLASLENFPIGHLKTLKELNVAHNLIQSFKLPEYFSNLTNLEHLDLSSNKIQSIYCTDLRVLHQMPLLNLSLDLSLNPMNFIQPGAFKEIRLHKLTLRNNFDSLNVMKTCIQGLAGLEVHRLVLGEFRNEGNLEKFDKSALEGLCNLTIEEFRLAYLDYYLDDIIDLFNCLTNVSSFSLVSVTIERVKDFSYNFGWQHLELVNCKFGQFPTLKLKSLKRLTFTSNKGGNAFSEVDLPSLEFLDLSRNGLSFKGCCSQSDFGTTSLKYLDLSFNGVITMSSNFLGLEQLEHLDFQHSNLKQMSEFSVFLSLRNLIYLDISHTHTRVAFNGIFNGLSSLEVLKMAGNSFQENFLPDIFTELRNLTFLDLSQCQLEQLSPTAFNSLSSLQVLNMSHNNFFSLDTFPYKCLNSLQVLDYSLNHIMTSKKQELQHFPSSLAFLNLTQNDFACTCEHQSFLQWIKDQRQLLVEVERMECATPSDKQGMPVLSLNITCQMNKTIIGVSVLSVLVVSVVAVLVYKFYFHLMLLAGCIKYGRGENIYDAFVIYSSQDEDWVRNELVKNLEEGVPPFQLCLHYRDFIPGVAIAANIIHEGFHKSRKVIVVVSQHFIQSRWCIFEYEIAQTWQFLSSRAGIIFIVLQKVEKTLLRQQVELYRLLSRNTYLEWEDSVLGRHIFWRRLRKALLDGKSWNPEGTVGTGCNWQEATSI
T4 sequence (Q9Y6Y9 17-160 partner limits assumed, species assumed): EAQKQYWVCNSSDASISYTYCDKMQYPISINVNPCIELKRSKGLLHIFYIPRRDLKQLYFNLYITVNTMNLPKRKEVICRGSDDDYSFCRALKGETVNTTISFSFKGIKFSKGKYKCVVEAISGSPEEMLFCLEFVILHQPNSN
Experimental: as §1, §2

TLR5 = target: T5, TLR5 (Homo sapiens, UniProt O60602); test: TLR5 antagonist screening, NF-κB-inducible SEAP reporter in HEK293 cells; assay type: cell-based; settings: 10 μM; stimulated with Flagellin at 100 ng/ml
T5 construct: expressed in transfected cells; host or cells: HEK293
T5 sequence (O60602 21-858, species assumed): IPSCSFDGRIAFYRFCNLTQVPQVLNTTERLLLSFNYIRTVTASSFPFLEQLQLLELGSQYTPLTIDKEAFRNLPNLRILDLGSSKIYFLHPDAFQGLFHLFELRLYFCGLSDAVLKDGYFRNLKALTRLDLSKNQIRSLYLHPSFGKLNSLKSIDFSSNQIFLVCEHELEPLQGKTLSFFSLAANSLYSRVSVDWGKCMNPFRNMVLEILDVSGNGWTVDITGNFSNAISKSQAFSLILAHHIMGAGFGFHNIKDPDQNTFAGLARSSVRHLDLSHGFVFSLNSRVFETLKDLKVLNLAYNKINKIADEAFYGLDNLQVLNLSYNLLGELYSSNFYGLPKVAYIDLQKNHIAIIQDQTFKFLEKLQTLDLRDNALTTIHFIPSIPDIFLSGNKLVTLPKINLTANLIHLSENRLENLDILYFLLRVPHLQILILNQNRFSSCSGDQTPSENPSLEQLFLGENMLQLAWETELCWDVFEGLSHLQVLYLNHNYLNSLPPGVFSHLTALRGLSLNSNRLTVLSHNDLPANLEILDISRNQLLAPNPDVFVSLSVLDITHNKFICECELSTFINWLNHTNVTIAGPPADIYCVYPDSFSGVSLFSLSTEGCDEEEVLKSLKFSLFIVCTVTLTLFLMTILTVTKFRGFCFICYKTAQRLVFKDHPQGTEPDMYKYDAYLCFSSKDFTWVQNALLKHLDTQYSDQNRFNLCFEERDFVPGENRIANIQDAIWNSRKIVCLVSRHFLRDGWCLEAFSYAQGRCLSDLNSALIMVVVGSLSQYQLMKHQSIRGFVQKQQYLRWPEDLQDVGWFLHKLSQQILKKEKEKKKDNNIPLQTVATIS
Experimental: as §1, §2

TLR9 [3] = target: T1, TLR9; test: TLR9 antagonist screening, NF-κB-inducible SEAP reporter in HEK293 cells; assay type: cell-based; settings: 10 μM; stimulated with CpG ODN 2006 at 100 ng/ml
Experimental: as §1, §2

[4] = test system: APAP-induced liver toxicity; test: Acetaminophen (APAP)-induced hepatotoxicity model; assay type: in vivo, mouse; settings: APAP 500 mg/Kg ip, 12 hours post-APAP
Experimental: For this, APAP-induced liver toxicity was induced in male C57BL/6 mice aged between 8-10 weeks by a single intraperitoneal (ip) injection of APAP in PBS at a dose of 500 mg/Kg (Imaeda et al. (2009) J. Clin. Invest. 119(2):305-314). The ability of (+)-morphinans to reduce liver toxicity was tested in the following groups:
The (+)-morphinan (or PBS) was either administered as a single subcutaneous (sc) or ip injection concurrent with the APAP injection or one hour prior to the APAP injection.
The mice were sacrificed 12 hours post-APAP treatment. Liver samples were stained with H&E and analyzed for signs of necrosis and hemorrhage. Histology scores were assigned using the standard rating scale. The levels of serum alanine transaminase (ALT) were also measured in each animal using a standard assay.

[5] = Dissolution of compound in dosing vehicle (EAE study); assay type: physicochemical; settings: 20 mg/kg in sterile dd H2O; delivered as a suspension
From the text: It is not known whether the suspension dissolved adequately in the body to provide sufficient plasma concentration for efficacy.

[6] = test system: chronic constriction injury (CCI) neuropathic pain model; test: Mechanical allodynia (Von Frey) in chronic constriction injury (Bennett) model, Example 3; assay type: in vivo, rat; settings: Day 14 post-surgery, 30 and 90 min post-dosing, vs vehicle
From the text: Neuropathic pain affects approximately 1% of the U.S. population and is extremely difficult to manage. Usually the pain is chronic, severe, and fails to respond to traditional analgesic drugs. Fortunately, one of the most widely used animal models for neuropathic pain closely mimics the pain endured by patients. In this model, termed the chronic constriction injury (CCI) or Bennett model, four closely spaced ligatures tied loosely around the sciatic nerve of a rat cause demyelination of the nerve, resulting in spontaneous pain, such as prolonged paw elevation and licking of the ligated paw. Induced pain in the nerve-injured limb can be measured using Von Frey filaments, applied to the plantar surface of the paw to test for responses to non-noxious tactile stimulation. The onset of this heightened mechanical allodynia is quite rapid and it persists for 2-3 months.
In this example, the CCI ligation was performed on the left sciatic nerve in three groups of rats. Von Frey testing of mechanical allodynia was performed on both paws on Day 14 to determine the analgesic efficacy of the test agent. The testing was performed pre-dosing, and at 30 and 90 minutes post-dosing.
The animals were allocated to treatment groups based on their baseline Von Frey data, measured prior to surgery. The mechanical allodynia scores for each group were reviewed to ensure that the mean values and standard deviation satisfied the assumption of homogeneity. Thirty-one (31) animals were used on the study. Thirty (30) animals were initially allocated to treatment groups, and the remaining […] animals were held as spares. One spare was then used to replace an animal that died during surgery. Body weights were taken one day after arrival, prior to surgery and weekly thereafter. On Day 14, after the final behavioral testing, the animals were euthanized by carbon dioxide asphyxiation. No necropsy was performed nor tissues collected.
All surgeries were performed under aseptic conditions. Prior to surgery, the rats were sedated using inhaled Isoflurane anesthetic. The left leg was shaved and prepped. The common sciatic nerve was exposed and freed from adherent tissue at mid-thigh by separating the muscle (biceps femoris) by blunt dissection. Proximal to the sciatic nerve's trifurcation; approximately 7 mm of nerve was freed from the adhering tissue. Four ligatures, approximately 1 mm apart, were tied loosely around the nerve using 6.0 chromic catgut. Each of the sutures was tied loosely with a square knot around the sciatic nerve. A brief twitch in the muscle surrounding the exposure was an indicator of the desired degree of constriction. The site was then closed using the appropriate suture material. Post-operative care and observations were carried out until the animal recovered consciousness.
The animals underwent a series of behavioral testing for neuropathic pain assessment. A Von Frey test of mechanical allodynia was performed on both hind paws prior to surgery to achieve a baseline measurement for randomization and then following surgery on Day 14 (test article efficacy) according to Table 4.
Twice prior to surgery, the animals were acclimated to the allodynia apparatus. This habituated the rats to the testing devices to familiarize them with the apparatus so they were calm at the time of testing. […] Animals were first habituated to the testing chamber so that they were calm enough for their pain threshold to be assessed. […]

Structure (SMILES)	OD 650 nm (mean ± sd) (TLR9 [1]; 100 nM) [OD]	OD 650 nm (mean ± sd) (TLR9 [1]; 10 μM) [OD]	inhibition at 0.1 µM (TLR9 [1]) [%]	inhibition at 10 µM (TLR9 [1]) [%]	EAE clinical scores [2]	further results
COC1=CCC2[C@@H]3Cc4ccc(OC)c5c4[C@]2(CCN3)[C@@H]1O5 (some centres unmarked) [II-98]	1.02 ± 0.02	0.56 ± 0.03	28	60	–	Acute toxicity ([2]; 20 mg/kg bid, subcutaneous): acute toxicity was observed
O=C1CC[C@]2(O)[C@@H]3Cc4ccc(O)c5c4[C@]2(CCN3CC2CC2)[C@@H]1O5 [(+)-Naltrexone, (+)-naltrexone]	–	–	–	–	–	Average % Inhibition at TLR2 (TLR2): 21%; Average % Inhibition at TLR3 (TLR3): 22%; Average % Inhibition at TLR4 (TLR4): 24%; Average % Inhibition at TLR5 (TLR5): 22%; Average % Inhibition at TLR9 (TLR9 [3]): 51%
C[C@]12C=CC(=O)C=C1CC[C@@H]1[C@@H]2[C@@H](O)C[C@@]2(C)[C@H]1CC[C@]2(O)C(=O)CO [Prednisolone, reference compound]	–	–	–	–	significantly reduced EAE clinical scores	–
COc1ccc2c3c1O[C@@H]1C(=O)CC[C@@H]4[C@H](C2)N(CC2CC2)CC[C@@]314 [II-24]	0.65 ± 0.04	0.09 ± 0.01	54	94	did not improve EAE	Protection from APAP-induced toxicity ([4]; test doses and timing per Table 6): None of compounds II-24, II-93, or III-2 provided any protection; Liver histology scores (necrosis and hemorrhage) ([4]; vs APAP alone): about the same as those only exposed to APAP
COC1=CC=C2[C@@H]3Cc4ccc(OC)c5c4[C@]2(CCN3)[C@@H]1O5 [II-38]	0.86 ± 0.01	0.12 ± 0.01	40	92	did not improve EAE	Dissolution in dosing vehicle [5]: did not dissolve into a solution
NCC1(CC(=O)O)CCCCC1 [Gabapentin]	–	–	–	–	–	Mechanical allodynia (50% allodynia threshold), left (affected) paw ([6]; (+)-naloxone.HCl 66.7 mg/kg S.C., Gabapentin 100 mg/kg I.P.): effective at significantly reducing the allodynia; Mechanical allodynia (50% allodynia threshold), right (unaffected) paw [6]: higher threshold
